Values quoted from earlier work in patent US20070044813A1, “Use of snuff for treatment of house dust mite allergy and/or cigarette smoke allergy” (priority 2005, published 2007).
Where a name gives a salt, the structure may show the parent alone.

Tested on: symptoms of house dust mite allergy and cigarette smoke allergy
Conditions: conventional medicaments; control the symptoms only partly

## CC(C)(C(=O)O)c1ccc(C(O)CCCN2CCC(C(O)(c3ccccc3)c3ccccc3)CC2)cc1 (centres unmarked) [fexofenadine hydrochloride]
  alleviation of the symptoms: around 40%

## Clc1ccc2c(c1)CCc1cccnc1C2=C1CCNCC1 [desloratadine]
  alleviation of the symptoms: around 40%
